Data as given in US8232407B2, “Nitrogenous heterocyclic compounds with insecticidal activity, and the preparation and use thereof” (East China University of Science and Technology, priority 2008, dated 2012).

Key:
Type in all cases: in vivo
Settings in all cases: in vivo
Aphis craccivoral = experiment: Insecticidal activities to aphids, immersion method
Procedure: (1): Insecticidal Activities to Aphids
Aphis (Aphis craccivoral), which belongs to Homoptera and has a piercing-sucking mouthpart, is a common insect for agricultural plant. Aphis craccivoral was tested by immersion method.
Procedure: exactly weighed various samples were independently added to N,N-dimethylformamide to form 10 g/L stock solutions. The stock solutions were diluted with 0.2 mL/L aqueous Triton X-100 solution to a concentration of 500 ppm. After stably sucking on bean sprout, the wingless adult aphis together with bean sprout were dipped into 500 ppm dilution, taken out after 5 seconds, and the excess dilution was sucked off with bibulous paper. The treated wingless adult aphis was incubated in clean vessel at a constant temperature of 23° C. Each concentration was repeated for 3 times and the control group was treated with 0.2mL/L aqueous Triton X-100 solution. The number of killed aphis was counted after 24 hours and the mortality was to calculated according to the following formula:
(§1) Mortality (%)=(the number of the survival aphis in control group−the number of the survival aphis in the treatment group)/the number of the survival aphis in control group×100%

Nilaparvata lugens = experiment: Insecticidal activities to plant hopper, spraying method
Procedure: as §1
(2): Insecticidal Activities to Plant hopper
Plant hopper (Nilaparvata lugens), which belongs to Homoptera and has a piercing-sucking mouthpart, is a common insect for agricultural plant. Nilaparvata lugens was tested by spraying method.
Procedure: the test compound was exactly formulated with acetone to form solutions having concentrations of 500, 250, 100, 50, 25, 12.5, 6.25, 3.13, 1.57 and 0.79 ppm, respectively. Aqueous acetone solution was used as control. Each treatment was repeated for 3 tumblers (3 times). Two ml of solution was sprayed uniformly to each tumbler with a mini manual sprayer. 10 insects were introduced to every basin 6 hours before spraying. Three series of experiments were conducted. The number of killed insects was counted after 24 hours to calculate the mortality according to the above mentioned formula.

[1] = tested on: Pseudaletia separate Walker; experiment: Insecticidal activities to armyworm, leaf dipping and feeding
Procedure: as §1
(3): Insecticidal Activities to Armyworm
Armyworm (Pseudaletia separate Walker) was tested by the way of leaf dipping and feeding. The test compound was exactly formulated with acetone into solutions having concentrations of 500, 250, 100, 50, 25, 12.5, 6.25, 3.13 and 1.57 ppm, respectively. Aqueous acetone solution was used as control. Fresh maize leaves were immersed in the solution for 3 seconds, dried at room temperature, and fed to the tested insects. Each treatment was tested with 10 insects and repeated for 3 tumblers (3 times). The number of killed insects was counted after 24 hours to calculate the mortality according to the above mentioned formula.

Plutella xylostella = experiment: Insecticidal activities to diamondback moth, feeding dipped leaves
Procedure: as §1
(4): Insecticidal Activities to Diamondback Moth
Diamondback moth (Plutella xylostella) was tested by the way of feeding dippedleaves. Fresh cabbage leaves were immersed in above mentioned solution for 3 seconds, dried at room temperature, and fed to the tested insects. Each treatment was tested with 10 insects and repeated for 3 tumblers (3 times), while water was used as control. The number of killed insects was counted after 24 hours to calculate the mortality according to the above mentioned formula.

SMILES	Aphis craccivoral Mortality (%) 500 ppm (Aphis craccivoral) [%]	Nilaparvata lugens Mortality (%) 500 ppm (Nilaparvata lugens) [%]	Pseudaletia separate Walker Mortality (%) 500 ppm [1] [%]	Plutella xylostella Mortality (%) 500 ppm (Plutella xylostella) [%]
O=[N+]([O-])C(=Cc1ccc(Br)o1)C1=NCCN1Cc1ccc(Cl)nc1 [Compound 5]	100	100	100	100
O=[N+]([O-])C(=Cc1ccccc1)C1=NCCN1Cc1ccc(Cl)nc1 [Compound 44]	67	92	97	100
O=[N+]([O-])C(=Cc1cc(Br)cs1)C1=NCCN1Cc1ccc(Cl)nc1 [Compound 22]	100	100	100	100
CC(=C(C1=NCCN1C(C)c1ccc(Cl)nc1)[N+](=O)[O-])c1ccoc1 (racemic) [Compound 134]	38	51	52	46
CCc1ccc(C=C(C2=NCCN2Cc2ccc(Cl)nc2)[N+](=O)[O-])s1 [Compound 29]	100	100	100	100
O=[N+]([O-])C(=Cc1ccc(Cl)s1)C1=NCCN1Cc1ccc(Cl)nc1 [Compound 19]	100	100	100	100
C[N+]1=C(C(=Cc2ccc(Br)s2)[N+](=O)[O-])N(Cc2ccc(Cl)nc2)CC1.[Cl-] [Compound 263]	100	100	100	100
O=[N+]([O-])C(=Cc1cc(Cl)co1)C1=NCCN1Cc1cnc(Cl)s1 [Compound 73]	100	100	100	100
C[N+]1=C(C(=Cc2cc(Br)c(Br)o2)[N+](=O)[O-])N(Cc2ccc(Cl)nc2)CC1.[Cl-] [Compound 253]	100	100	100	100
O=[N+]([O-])C(=Cc1cc(Br)c(Br)o1)C1=NCCN1Cc1ccc(Cl)nc1 [Compound 10]	100	100	100	100
O=[N+]([O-])C(=Cc1cc(Br)c(Br)s1)C1=NCCN1Cc1ccc(Cl)nc1 [Compound 25]	100	100	100	100
CC(=C(C1=NCCN1C(C)c1ccc(Cl)nc1)[N+](=O)[O-])c1ccc(Cl)o1 (racemic) [Compound 136]	100	100	100	100
CC[N+]1=C(C(=Cc2ccsc2)[N+](=O)[O-])N(Cc2ccc(Cl)nc2)CC1.[Cl-] [Compound 292]	100	100	100	100
C[N+]1=C(C(=Cc2cc(Br)co2)[N+](=O)[O-])N(Cc2ccc(Cl)nc2)CC1.[Cl-] [Compound 250]	100	100	100	100
CC(c1ccc(Cl)nc1)N1CCN=C1C(=Cc1ccc(Br)o1)[N+](=O)[O-] (racemic) [Compound 126]	100	100	100	100
CC(=C(C1=NCCN1Cc1ccc(Cl)nc1)[N+](=O)[O-])c1cc(Cl)cs1 [Compound 120]	52	86	59	68

SMILES	Aphis craccivoral Mortality (%) 500 ppm (Aphis craccivoral) [%]	Nilaparvata lugens Mortality (%) 500 ppm (Nilaparvata lugens) [%]	Pseudaletia separate Walker Mortality (%) 500 ppm [1] [%]	Plutella xylostella Mortality (%) 500 ppm (Plutella xylostella) [%]
O=[N+]([O-])C(=Cc1ccc(Br)o1)C1=NCCN1CC1CCOC1 (stereo not shown) [Compound 95]	65	61	87	92
CCc1ccc(C=C(C2=[N+](C)CCN2Cc2ccc(Cl)nc2)[N+](=O)[O-])s1.[Cl-] [Compound 272]	100	100	100	100
O=[N+]([O-])C(=Cc1cc(Cl)co1)C1=NCCN1CC1CCOC1 (stereo not shown) [Compound 96]	32	50	58	52
O=[N+]([O-])C(=Cc1cncs1)C1=NCCN1Cc1ccc(Cl)nc1 [Compound 34]	100	100	100	100
CCc1ccc(C=C(C2=NCCN2CC2CCOC2)[N+](=O)[O-])o1 (stereo not shown) [Compound 101]	76	65	65	78
O=[N+]([O-])C(=Cc1cc(Cl)co1)C1=NCCCN1Cc1ccc(Cl)nc1 [Compound 51]	100	100	100	100
C[N+]1=C(C(=Cc2cc(Cl)co2)[N+](=O)[O-])N(Cc2ccc(Cl)nc2)CC1.[Cl-] [Compound 249]	100	100	100	100
O=[N+]([O-])C(=Cc1cc(Cl)c(Cl)o1)C1=NCCN1Cc1ccc(Cl)nc1 [Compound 8]	100	100	100	100
O=[N+]([O-])C(=Cc1cc(Cl)co1)C1=NCCN1Cc1ccccc1 [Compound 106]	91	87	59	75
O=[N+]([O-])C(=Cc1ccccn1)C1=NCCN1Cc1ccc(Cl)nc1 [Compound 37]	34	56	57	50
CCC(c1ccc(Cl)nc1)N1CCN=C1C(=Cc1ccc[nH]1)[N+](=O)[O-] (racemic) [Compound 132]	73	84	89	99
CC(=C(C1=NCCN1Cc1ccc(Cl)nc1)[N+](=O)[O-])c1ccc(Br)s1 [Compound 119]	75	91	46	87
CN=C(C(=Cc1ccc(Cl)o1)[N+](=O)[O-])N(C)Cc1ccc(Cl)nc1 [Compound 234]	37	44		
CN=C(NCc1ccc(Cl)nc1)C(=Cc1ccoc1)[N+](=O)[O-] [Compound 152]	67	64		
CCN(C(=NC)C(=Cc1ccc(Cl)o1)[N+](=O)[O-])C(C)c1ccc(Cl)nc1 (stereo not shown) [Compound 208]	42	100		
